Experimental data: US11465987B2, “Compounds for treatment of cancer” (ONCTERNAL THERAPEUTICS, INC., priority 2012, dated 2022)
Like-named read-outs stand apart in the source and are kept apart here.

Key:
B16-F1 melanoma tumors = assay: In vivo B16-F1 melanoma allograft; set-up: species or system mouse
Protocol: Female C57/BL mice, age 4-6 weeks, were purchased from Harlan Laboratories (Harlan Laboratories Inc., Indianapolis, Ind.). The animal housing met the Association for Assessment and Accreditation and Laboratory Animal Care specifications. All of the procedures were conducted in accordance with guidelines of our Institutional Animal Care and Use Committee.
Tumor volume was expressed in cubic millimeters.

MES-SA/DX5 cells = assay: Growth inhibition (SRB) assay, MES-SA/Dx5; format: cell-based; conditions: ratio of IC50 MES-SA/DX5 to MES-SA
[1] = system: MDA-MB-435/LCCMDR1 multidrug-resistant melanoma cells; assay: Cytotoxicity (SRB) assay, MDA-MB-435/LCCMDR1; format: cell-based; conditions: for IC50: Homo sapiens; for P-gp substrate / multidrug resistance in words: MDR melanoma line vs sensitive parent line
DU-145/TXR cells = assay: Growth inhibition, DU-145/TXR; format: cell-based; conditions: Homo sapiens
[2] = system: LNCaP human prostate cancer cell line; assay: Cytotoxicity (SRB) assay, LNCaP; format: cell-based; conditions: Homo sapiens, LNCaP, Table 13A; read-out: inhibitory effects, LNCaP
Description: (§1) Cells were stained with SRB solution.

[3] = system: PC-3 human prostate cancer cell line; assay: cells; conditions: Homo sapiens
Description: as §1

[4] = system: MDA-MB-435 parental nonresistant melanoma cells; assay: Cytotoxicity (SRB) assay, MDA-MB-435; format: cell-based; conditions: Homo sapiens, Table 14D, read-out: IC50 ± SEM, MDA-MB-435 (converted)
[5] = system: PPC-1 human prostate cancer cell line; assay: Cytotoxicity (SRB) assay, PPC-1; format: cell-based; conditions: Homo sapiens
Description: as §1

[6] = system: DU 145 human prostate cancer cell line; assay: Cytotoxicity (SRB) assay, DU 145; format: cell-based; conditions: Homo sapiens
Description: as §1

HEK293-pcDNA3.1 cells = assay: Cytotoxicity assay, HEK293-pcDNA3.1 (parental line of the MRP/BCRP sublines); format: cell-based; conditions: Table 14B; parental cell line; read-out: IC50 ± SEM, HEK293-pcDNA3.1
WM-164 melanoma cells = assay: Microtubule imaging (immunofluorescence); format: cell-based, human; conditions: WM-164 cells, 18 h
Description: Primary antibody for tubulin and fluorescence-labeled secondary antibody were subsequently added to the cells. Cell nuclei were stained by DAPI. Whole Cell Stain Green was also applied to all cells. All images were acquired with an Olympus IX71 inverted fluorescence microscope (Olympus Corp., Tokyo, Japan) with overlays from separate images of tubulin (red), nuclei (blue), and whole cells (green).

[7] = system: melanoma and prostate cancer cell lines; assay: Antiproliferative activity summarised over the cell line panel (range or average); format: cell-based; conditions: read-out: IC50 (range over tested cell lines)
[8] = system: NCI/ADR-RES (P-gp over-expressing resistant line of OVCAR-8); assay: Cytotoxicity (SRB) assay, NCI/ADR-RES; format: cell-based, human
[9] = system: PC-3_TxR paclitaxel-resistant prostate cancer cells (P-gp over-expressing); assay: cells; conditions: Homo sapiens, PC3-TxR
[10] = system: A375MA2 melanoma cell line; assay: Cytotoxicity assay, A375MA2; format: cell-based; conditions: Table 14B, n = 3; read-out: IC50 ± SEM, A375MA2
[11] = system: A375 human melanoma xenograft; assay: In vivo A375 human melanoma xenograft; conditions: SHO mice, 31 days
[12] = system: OVCAR-8 human ovarian cell line; assay: Cytotoxicity (SRB) assay, OVCAR-8; format: cell-based; conditions: Table 14B, parental cell line, read-out: IC50 ± SEM, OVCAR-8
PC-3_TxR xenograft = assay: In vivo PC-3/TxR xenograft; conditions: for tumor growth inhibition (TGI): PC-3/TxR tumors
[13] = system: confluent HUVEC monolayers; assay: Endothelial monolayer permeability assay; conditions: FITC-dextran leakage, 1, 2, 4 h
[14] = system: A375 human melanoma cell line; assay: Cytotoxicity (SRB) assay, A375; format: cell-based; conditions: Homo sapiens, A-375, Table 14D; read-out: IC50 ± SEM, A375 (converted)
[15] = Table 14D, read-out: IC50 ± SEM, MDA-MB-435/LCC-6MDR1 (converted)
[16] = DU-145, Table 13A, read-out: inhibitory effects, DU-145/TXR
[17] = read-out: inhibitory effects, PC3, Table 13A
[18] = PPC-1, Table 13A, read-out: inhibitory effects, PPC1
[19] = DU-145, Table 13A, read-out: inhibitory effects, DU145
[20] = read-out: IC50 PC-3, SRB assay, prostate cancer PC-3
[21] = read-out: inhibitory effects, PC3/TXR

**Q.** How did the tumor volume reduction (B16-F1 melanoma tumors; C57/BL mice, 60 mg/kg i.p. daily, 14 days) turn out when `CN(C)/N=N/c1[nH]cnc1C(N)=O` [DTIC, 5-(3,3,-dimethyl-1-triazenyl)-imidazole-4-carboxamide, reference compound] was run?
**A.** 51%

**Q.** And the “tumor growth inhibition (TGI)” value (B16-F1 melanoma tumors; C57BL/6 mice, 60 mg/kg, 13 days)?
**A.** 51%

**Q.** How did the Resistance factor (MES-SA/DX5 cells) turn out when `Fc1ccc(-c2nccc3ccc(-c4ccc5[nH]ccc5c4)cc23)cc1` [6c, 1-(4-Fluoro-phenyl)-7-(H-indol-5-yl)-isoquinoline] was run?
**A.** 1.7

**Q.** Which results are given for `COc1cc(C(=O)c2nc(-c3ccccc3)c[nH]2)cc(OC)c1OC` [70a, (4-Phenyl-1H-imidazol-2-yl)(3,4,5-trimethoxyphenyl)methanone and (5-phenyl-1H-imidazol-2-yl)(3,4,5-trimethoxyphenyl)methanone]?
**A.** IC50 [1, 15]: 43 nM; IC50 (DU-145/TXR cells; [16]): 22.9 nM; IC50 [2]: 6 nM; IC50 [3, 17]: 14 nM; IC50 [4]: 79 nM; IC50 [5, 18]: 13 nM; IC50 [6, 19]: 21.5 nM

**Q.** With `COc1ccc(S(=O)(=O)Nc2cccnc2Nc2ccc(O)cc2)cc1` [ABT-751, reference compound] as the molecule, how does the IC50 ([1]; Table 14B, MDR1 overexpressed, read-out: IC50 ± SEM, MDA-MB-435/LCC6MDR1) read?
**A.** 577 ± 31 nM

**Q.** And the “P-gp substrate / multidrug resistance in words” value [1]?
**A.** not susceptible to MDR1, MRP, or BCRP

**Q.** And the IC50 (HEK293-pcDNA3.1 cells)?
**A.** 645 ± 153 nM

**Q.** What about the “effect on microtubules in words” value (WM-164 melanoma cells) of the same molecule?
**A.** microtubule fragmentation

**Q.** Which results are given for `COc1cc(C(=NC#N)c2csc(-c3ccccc3)n2)cc(OC)c1OC` [2j, N-((2-phenylthiazol-4-yl)(3,4,5-trimethoxyphenyl)methylene)cyanamide]?
**A.** IC50 [3, 20]: 27 ± 1 nM; IC50 [7]: 20 to 60 nM; Resistance factor ([8]; NCI/ADR-RES relative to OVCAR-8): 0.4

**Q.** With `CCn1cc(-c2ccccc2)nc1C(=O)c1cc(OC)c(OC)c(OC)c1` [70n, (1-Ethyl-4-phenyl-1H-imidazol-2-yl)(3,4,5-trimethoxyphenyl)methanone] as the molecule, how does the IC50 (DU-145/TXR cells; [16]) read?
**A.** 66 nM

**Q.** What about the IC50 [2] of the same molecule?
**A.** 29 nM

**Q.** What about the IC50 [9, 21] of the same molecule?
**A.** 20 nM

**Q.** What about the IC50 [3, 17] of the same molecule?
**A.** 25 nM

**Q.** What about the IC50 [6, 19] of the same molecule?
**A.** 66 nM

**Q.** Which results are given for `O=C(c1ccc(F)cc1)c1c[nH]c(-c2ccc(Cl)cc2)n1` [12fb, (2-(4-chlorophenyl)-1H-imidazol-4-yl)(4-fluorophenyl)methanone]?
**A.** P-gp substrate / multidrug resistance in words [1]: not substrates for P-gp; tumor growth inhibition (TGI value) (B16-F1 melanoma tumors; C57BL/6 mice, 15 mg/kg, 13 days): 32%; tumor growth inhibition (TGI value) (B16-F1 melanoma tumors; C57BL/6 mice, 45 mg/kg, 13 days): 82%; IC50 [10]: 55 ± 4 nM; IC50 ([8]; Homo sapiens, NCI/ADR-RES, Table 14B, MDR1 overexpressed, read-out: IC50 ± SEM, NCI/ADR-RES): 20 ± 6 nM; IC50 (HEK293-pcDNA3.1 cells): 54 nM; well tolerated dose [11]: 25 mg/kg; IC50 [12]: 45 ± 2 nM

**Q.** Which results are given for `COc1cc(C(=O)c2nc(-c3ccccc3)cn2C)cc(OC)c1OC` [70m, (1-Methyl-4-phenyl-1H-imidazol-2-yl)(3,4,5-trimethoxyphenyl)methanone]?
**A.** IC50 (DU-145/TXR cells; [16]): 27 nM; IC50 [9, 21]: 7.5 nM; IC50 [3, 17]: 16 nM; IC50 [5, 18]: 13 nM; IC50 [6, 19]: 26 nM

**Q.** With `CC(=O)O[C@@]12CO[C@@H]1C[C@H](O)[C@@]1(C)C(=O)[C@H](O)C3=C(C)[C@@H](OC(=O)[C@H](O)[C@@H](NC(=O)OC(C)(C)C)c4ccccc4)C[C@@](O)([C@@H](OC(=O)c4ccccc4)[C@H]21)C3(C)C` [docetaxel, reference compound] as the molecule, how does the IC50 ([9]; read-out: IC50 PC-3/TxR) read?
**A.** 17.7 ± 0.7 nM

**Q.** What about the IC50 ([3]; read-out: IC50, PC-3, Table 7) of the same molecule?
**A.** 6.3 ± 0.4 nM

**Q.** And the IC50 [3, 20]?
**A.** 1.2 ± 0.1 nM

**Q.** And the “tumor growth inhibition (TGI)” value (PC-3_TxR xenograft; i.v. 10 mg/kg on day 1 and 9)?
**A.** 14%

**Q.** What about the “tumor growth inhibition (TGI)” value (PC-3_TxR xenograft; i.v. 20 mg/kg on day 1 and 9) of the same molecule?
**A.** 56%

**Q.** And the “Tumor size End” value (PC-3_TxR xenograft; PC-3/TxR xenograft, IV 10 mpk, day 1 and 9, day 19, […])?
**A.** 1774 ± 183 mm^2

**Q.** `COc1ccc(/C=C\c2cc(OC)c(OC)c(OC)c2)cc1O` [CA4, Combretastatin A-4] was tested. Which “permeability of endothelial cell monolayer in words” value [13] did it give?
**A.** increased permeability

**Q.** How did the IC50 [14] turn out when `CCc1ccc(-c2nc(C(=O)c3cc(OC)c(OC)c(OC)c3)c[nH]2)cc1` [12q, (2-(4-ethylphenyl)-1H-imidazol-4-yl)(3,4,5-trimethoxyphenyl)methanone] was run?
**A.** 1.4 nM

**Q.** What about the IC50 [1, 15] of the same molecule?
**A.** 27 ± 3 nM

**Q.** And the IC50 (DU-145/TXR cells; Table 12, in parentheses in the Du 145 column, read-out: IC50, DU-145/TXR)?
**A.** 20 nM

**Q.** What about the IC50 ([3]; read-out: IC50 ± SEM, PC-3, Table 12) of the same molecule?
**A.** 13 nM

**Q.** What about the IC50 [4] of the same molecule?
**A.** 107 ± 5 nM

**Q.** And the IC50 ([5]; PPC-1, Table 12, read-out: IC50 ± SEM, PPC-1 (converted))?
**A.** 15 nM

**Q.** What about the IC50 ([6]; DU-145, Table 12, read-out: IC50 ± SEM, Du 145) of the same molecule?
**A.** 25 nM

**Q.** Which results are given for `COc1ccc(-c2nc(C(=O)c3ccc(F)cc3)c[nH]2)cc1` [12cb, (4-fluorophenyl)(2-(4-methoxyphenyl)-1H-imidazol-4-yl)methanone]?
**A.** IC50 [10]: 44 ± 5 nM; IC50 (HEK293-pcDNA3.1 cells): 12 ± 2 nM; IC50 [12]: 25 ± 2 nM; effect on microtubules in words (WM-164 melanoma cells): microtubule fragmentation
